Measured values published in patent US9670214B2, “Small molecule myristate inhibitors of Bcr-abl and methods of use” (DANA-FARBER CANCER INSTITUTE, INC., priority 2007, dated 2017).

Each compound was assayed on Ba/F3 cells (IL-3 dependent murine pro-B cell line) (assay: Proliferation assay (MTT), parental Ba/F3 cells). Conditions: Mus musculus, 48 h, drug concentrations 0.005-10 μM, read-out: BaF3.
Type: cell-based
Method: Interleukin-3 (IL-3) dependent murine pro-B cell line, Ba/F3, and murine myeloid precursor cell line, 32D, were maintained in RPMI-1640 medium supplemented with L-Glutamine, 10% FBS and 10 U/ml recombinant murine IL-3 (Roche). Mo7e human megakarioblastic cell line was grown in RPMI-1640 medium supplemented with L-Glutamine, 20% FBS and 5 ng/ml recombinant human granulocyte macrophage cell stimulating factor (GM-CSF) (R&D Systems) or 200 ng/ml stem cell factor (SCF) (Biosource).
(§1) Cells (0.3-0.6×10^6/ml) were plated in duplicate or triplicate in 96-well plates containing increasing drug concentrations (0.005-10 μM). After incubation at 37° C. in 5% CO2 for 48 h, the effect of the compounds on cell viability was determined by MTT (Promega) colorimetric dye reduction method. Inhibition of cell proliferation was calculated as a percentage of growth of DMSO treated cells, and IC50 values were determined with Microsoft Excel XLfit3.

`COc1ccc(C(=O)Nc2ccc(-c3cc(Nc4ccc(OC(F)(F)F)cc4)ncn3)cc2)cc1` and `CCS(=O)(=O)Nc1ccc(-c2cc(Nc3ccc(OC(F)(F)F)cc3)ncn2)cc1` are within 1.5-fold of each other in IC50: 9.22 µM for the first, 8.31 µM for the second.

`FC(F)(F)Cn1ncc2c(Nc3ccc(OC(F)(F)F)cc3)ncnc21` and `CCn1ncc2c(Nc3ccc(OC(F)(F)F)cc3)ncnc21` cannot be ordered by IC50: over 10 µM for the first, over 10 µM for the second.

First: Cc1c(Nc2ccc(OC(F)(F)F)cc2)ncnc1-c1cnn(C)c1
Second: Cc1c(Nc2ccc(OC(F)(F)F)cc2)ncnc1-c1cnn(CC(C)C)c1
The IC50 of the first is higher: over 10 µM for the first, 1.46 µM for the second. The second is the more potent here.

`OC[C@H]1OC(n2ccc3c(Nc4ccc(OC(F)(F)F)cc4)ncnc32)[C@H](O)[C@@H]1O` (stereo partly drawn) and `OC[C@H]1OC(n2cnc3c(Nc4ccc(OC(F)(F)F)cc4)ncnc32)[C@H](O)[C@@H]1O` (stereo partly drawn) cannot be ordered by IC50: over 10 µM for the first, over 10 µM for the second.

`FC(F)(F)Oc1ccc(Nc2ncnc3c2cnn3Cc2ccncc2)cc1` and `FC(F)(F)Oc1ccc(Nc2ncnc3c2cnn3Cc2ccccc2)cc1` cannot be ordered by IC50: over 10 µM for the first, over 10 µM for the second.

Going from `FC(F)(F)Oc1ccc(Nc2cc(Nc3cc(C4CC4)[nH]n3)ncn2)cc1` to `Cn1cc(-c2cc(Nc3ccc(OC(F)(F)F)cc3)ncn2)cn1`, the IC50 rises from 5.62 µM to over 10 µM. The first is the more potent here.

`FC(F)(F)Oc1ccc(Nc2ncnc3c2cnn3CCc2ccccc2)cc1` and `FC(F)(F)Oc1ccc(Nc2ncnc3nn(CCc4ccccc4)cc23)cc1` cannot be ordered by IC50: over 10 µM for the first, over 10 µM for the second.

`FC(F)(F)Oc1ccc(Nc2ncnc3nn(-c4cc(C(F)(F)F)ccn4)cc23)cc1` and `FC(F)(F)Oc1ccc(Nc2ncnc3c2cnn3-c2cc(C(F)(F)F)ccn2)cc1` cannot be ordered by IC50: over 10 µM for the first, over 10 µM for the second.

`FC(F)(F)Oc1ccc(Nc2ncnc3[nH]ncc23)cc1` and `CCn1cc2c(Nc3ccc(OC(F)(F)F)cc3)ncnc2n1` cannot be ordered by IC50: over 10 µM for the first, over 10 µM for the second.

First: Fc1cc(Cn2cc3c(Nc4ccc(OC(F)(F)F)cc4)ncnc3n2)ccc1C(F)(F)F
Second: FC(F)(F)Oc1ccc(Nc2ncnc3nn(Cc4cccc(Br)c4)cc23)cc1
The IC50 of the first is lower: 4.6 µM for the first, over 10 µM for the second. The first is the more potent here.

`FC(F)(F)Oc1ccc(Nc2ncnc3nn(-c4ccc(Cl)cc4Cl)cc23)cc1` and `FC(F)(F)Oc1ccc(Nc2ncnc3c2cnn3-c2ccc(Cl)cc2Cl)cc1` cannot be ordered by IC50: over 10 µM for the first, over 10 µM for the second.

Going from `COC1CCN(C(=O)c2cc3c(Nc4ccc(OC(F)(F)F)cc4)ncnc3s2)CC1` to `O=C(c1cc2c(Nc3ccc(OC(F)(F)F)cc3)ncnc2s1)N1CCN(N2CCCC2)CC1`, the IC50 falls from over 10 µM to 5.77 µM.

`O=Cc1cnc2c(ccn2CCN2CCOCC2)c1Nc1ccc(OC(F)(F)F)cc1Br` and `FC(F)(F)Oc1ccc(Nc2ncnc3c2ncn3CCN2CCOCC2)cc1` cannot be ordered by IC50: over 10 µM for the first, over 10 µM for the second.

`Fc1ccccc1-n1cc2c(Nc3ccc(OC(F)(F)F)cc3)ncnc2n1` and `CCc1ccccc1-n1cc2c(Nc3ccc(OC(F)(F)F)cc3)ncnc2n1` cannot be ordered by IC50: over 10 µM for the first, over 10 µM for the second.

Compared with `CCNC(=O)c1cc2c(Nc3ccc(OC(F)(F)F)cc3)ncnc2n1C`, `COC[C@H]1CCCN1C(=O)c1cc2c(Nc3ccc(OC(F)(F)F)cc3)ncnc2n1C` is higher in IC50: 5.37 µM for the first, over 10 µM for the second. The first is the more potent here.

`NC(=O)C1CCN(C(=O)c2ccc3c(Nc4ccc(OC(F)(F)F)cc4)ncnc3c2)CC1` and `O=C(c1ccc2c(Nc3ccc(OC(F)(F)F)cc3)ncnc2c1)N1CCC(O)CC1` cannot be ordered by IC50: over 10 µM for the first, over 10 µM for the second.

Compared with `CCCCn1ncc2c(Nc3ccc(OC(F)(F)F)cc3)ncnc21`, `NCCn1ncc2c(Nc3ccc(OC(F)(F)F)cc3)ncnc21` is higher in IC50: 6.6 µM for the first, over 10 µM for the second.

`CCN(CC)S(=O)(=O)c1ccc(-c2ncnc(Nc3ccc(OC(F)(F)F)cc3)c2C)cc1` and `Cc1c(Nc2ccc(OC(F)(F)F)cc2)ncnc1-c1ccc(S(N)(=O)=O)cc1` cannot be ordered by IC50: over 10 µM for the first, over 10 µM for the second.

`CCCCS(=O)(=O)Nc1ccc(-c2cc(Nc3ccc(OC(F)(F)F)cc3)ncn2)cc1` and `CC(C)S(=O)(=O)Nc1ccc(-c2cc(Nc3ccc(OC(F)(F)F)cc3)ncn2)cc1` are within 1.5-fold of each other in IC50: 8.92 µM for the first, 6.93 µM for the second.

First: NC(=O)CCn1ncc2c(Nc3ccc(OC(F)(F)F)cc3)ncnc21
Second: NC(=O)Cn1ncc2c(Nc3ccc(OC(F)(F)F)cc3)ncnc21
The IC50 of the first is lower: 8.7 µM for the first, over 10 µM for the second. The first is the more potent here.

`OCCn1ccc2c(Nc3ccc(OC(F)(F)F)cc3)ncnc21` and `OCCn1ncc2c(Nc3ccc(OC(F)(F)F)cc3)ncnc21` [2-(4-(4-(trifluoromethoxy)phenylamino)-1H-pyrazolo[3,4-d]pyrimidin-1-yl)ethanol] cannot be ordered by IC50: over 10 µM for the first, over 10 µM for the second.

`CC(C)(C)n1ncc2c(Nc3ccc(OC(F)(F)F)cc3)ncnc21` and `CCS(=O)(=O)n1ncc2c(Nc3ccc(OC(F)(F)F)cc3)ncnc21` are within 1.5-fold of each other in IC50: 7.3 µM for the first, 7 µM for the second.

First: Cn1c(C(=O)N2CCC(Br)CC2)cc2c(Nc3ccc(OC(F)(F)F)cc3)ncnc21
Second: Cn1c(C(=O)N2CCCC(CO)C2)cc2c(Nc3ccc(OC(F)(F)F)cc3)ncnc21 (stereo not drawn)
The IC50 of the first is higher: over 10 µM for the first, 7.29 µM for the second. The second is the more potent here.

Compared with `NS(=O)(=O)c1cccc(-n2ncc3c(Nc4ccc(OC(F)(F)F)cc4)ncnc32)c1`, `Fc1ccccc1-n1ncc2c(Nc3ccc(OC(F)(F)F)cc3)ncnc21` is higher in IC50: 1.8 µM for the first, over 10 µM for the second. The first is the more potent here.

Compared with `FC(F)(F)Oc1ccc(Nc2ncnc3nn(Cc4cccnc4)cc23)cc1`, `FC(F)(F)Oc1ccc(Nc2ncnc3nn(Cc4ccccc4)cc23)cc1` is higher in IC50: 2.1 µM for the first, over 10 µM for the second. The first is the more potent here.

`CCc1ccccc1-n1ncc2c(Nc3ccc(OC(F)(F)F)cc3)ncnc21` and `Cc1cccc(-n2ncc3c(Nc4ccc(OC(F)(F)F)cc4)ncnc32)c1C` cannot be ordered by IC50: over 10 µM for the first, over 10 µM for the second.

`FC(F)(F)Oc1ccc(Nc2cc(-c3cc(NCCN4CCOCC4)ncn3)ncn2)cc1` and `FC(F)(F)Oc1ccc(Nc2cc(-c3cnn(Cc4cccnc4)c3)ncn2)cc1` cannot be ordered by IC50: over 10 µM for the first, over 10 µM for the second.

`CCOC(=O)Cc1cnc(NC(=O)c2ccc3c(Nc4ccc(OC(F)(F)F)cc4)ncnc3c2)s1` and `O=C(c1ccc2c(Nc3ccc(OC(F)(F)F)cc3)ncnc2c1)N1CCCC(CO)C1` (stereo not drawn) cannot be ordered by IC50: over 10 µM for the first, over 10 µM for the second.

Compared with `O=C(c1ccc2c(Nc3ccc(OC(F)(F)F)cc3)ncnc2c1)N1CCC(Br)CC1`, `CN(C)C1CCN(C(=O)c2ccc3c(Nc4ccc(OC(F)(F)F)cc4)ncnc3c2)C1` (stereo not drawn) is higher in IC50: 7.42 µM for the first, over 10 µM for the second.

`Cn1c(C(=O)N2CCC3(CC2)C(=O)NCN3c2ccccc2)cc2c(Nc3ccc(OC(F)(F)F)cc3)ncnc21` and `CCOC(=O)C1CCCN(C(=O)c2cc3c(Nc4ccc(OC(F)(F)F)cc4)ncnc3n2C)C1` (stereo not drawn) cannot be ordered by IC50: over 10 µM for the first, over 10 µM for the second.

`Cn1cnc2ncnc(Nc3ccc(OC(F)(F)F)cc3)c21` and `OCCn1cc2c(Nc3ccc(OC(F)(F)F)cc3)ncnc2n1` [2-(4-(4-(trifluoromethoxy)phenylamino)-2H-pyrazolo[3,4-d]pyrimidin-2-yl)ethanol] cannot be ordered by IC50: over 10 µM for the first, over 10 µM for the second.

`Oc1cccc(Cn2cc3c(Nc4ccc(OC(F)(F)F)cc4)ncnc3n2)c1` and `NC(=O)Cn1cc2c(Nc3ccc(OC(F)(F)F)cc3)ncnc2n1` cannot be ordered by IC50: 6.9 µM for the first, over 3.3 µM for the second.

First: CN1CCCN(C(=O)c2ccc3c(Nc4ccc(OC(F)(F)F)cc4)ncnc3c2)CC1
Second: CN1C(=O)Cc2c(Nc3ccc(OC(F)(F)F)cc3)ncnc21
The IC50 of the first is lower: 6.98 µM for the first, over 10 µM for the second.

`O=C1Cc2c(ncnc2Nc2ccc(OC(F)(F)F)cc2)N1` and `OCc1cc2c(Nc3ccc(OC(F)(F)F)cc3)ncnc2s1` cannot be ordered by IC50: over 10 µM for the first, over 10 µM for the second.

Compared with `FC(F)(F)Oc1ccc(Nc2ncnc3nn(C4CCCCC4)cc23)cc1`, `FC(F)(F)Oc1ccc(Nc2ncnc3c2cnn3C2CCCCC2)cc1` is lower in IC50: over 10 µM for the first, 9.3 µM for the second.

`Cc1cccc(-n2cc3c(Nc4ccc(OC(F)(F)F)cc4)ncnc3n2)c1C` and `CCCCn1cc2c(Nc3ccc(OC(F)(F)F)cc3)ncnc2n1` cannot be ordered by IC50: over 10 µM for the first, over 10 µM for the second.

`FC(F)(F)Oc1ccc(Nc2ncnc3nn(CC4CCOC4)cc23)cc1` (stereo not drawn) and `FC(F)(F)Oc1ccc(Nc2ncnc3c2cnn3CC2CCOC2)cc1` (stereo not drawn) cannot be ordered by IC50: over 10 µM for the first, over 10 µM for the second.

Compared with `FC(F)(F)Cn1cc2c(Nc3ccc(OC(F)(F)F)cc3)ncnc2n1`, `CN(C)CC(C#N)n1ncc2c(Nc3ccc(OC(F)(F)F)cc3)ncnc21` (stereo not drawn) is higher in IC50: 8 µM for the first, over 10 µM for the second. The first is the more potent here.

Compared with `FC(F)(F)Oc1ccc(Nc2cc(Nc3nccn3-c3cccc(C(F)(F)F)c3)ncn2)cc1`, `O=[N+]([O-])c1cccc(-c2cn3cnc(Nc4ccc(OC(F)(F)F)cc4)cc3n2)c1` [2-(3-nitrophenyl)-N-(4-(trifluoromethoxy)phenyl)imidazo[1,2-c]pyrimidin-7-amine] is 3.8-fold higher in IC50: 2.56 µM for the first, 9.6 µM for the second.

First: COCCCNC(=O)c1ccc(-c2ncnc(Nc3ccc(OC(F)(F)F)cc3)c2C)cc1
Second: COCCCNC(=O)CCn1ccc2c(Nc3ccc(OC(F)(F)F)cc3)ncnc21
The IC50 of the first is lower: 3.11 µM for the first, over 10 µM for the second. The first is the more potent here.

Going from `Cc1c(Nc2ccc(OC(F)(F)F)cc2)ncnc1-c1cnn(Cc2ccccc2)c1` to `FC(F)(F)Oc1ccc(Nc2ncnc3c2cnn3Cc2ccccn2)cc1`, the IC50 rises from 9.9 µM to over 10 µM.

`CC(C)S(=O)(=O)c1ccc(-c2cc(Nc3ccc(OC(F)(F)F)cc3)ncn2)cc1` and `COc1ccc(Cn2ccc3c(Nc4ccc(OC(F)(F)F)cc4)ncnc32)cc1` cannot be ordered by IC50: over 10 µM for the first, over 10 µM for the second.

Work on `O=C1c2ccccc2C(=O)N1CCn1ncc2c(Nc3ccc(OC(F)(F)F)cc3)ncnc21` yielded an IC50 of over 10 µM.

Each compound was assayed against Bcr-abl T315I (Ba/F3.p210^T315I cells) (Homo sapiens, UniProt P00519, T315I, cells depend on it) (assay: Proliferation assay (MTT), T315I mutant Bcr-abl expressing Ba/F3 cells). Conditions: 48 h, drug concentrations 0.005-10 μM.
Type: cell-based, murine
Text: Wild type Bcr-abl expressing 32D (32D.p210) and Ba/F3 (Ba/F3.p210) cells, and mutant Bcr-abl expressing cell lines Ba/F3.p210^G250E, Ba/F3.p210^E255V, Ba/F3.p210^T315I, Ba/F3.p210^F317L and Ba/F3.p210^M351T, as well as Ba/F3 cells transformed with Flt-3-ITD kinase. Additional assays included Ba/F3 cells expressing the fusion protein kinases TEL-PDGFRβ, TEL-JAK1, NPM-ALK, TEL-cKit, Tel-Bmx, Tel-FGR3, Tel-Lck and Ba/F3.TPR-met cells. All the above cell lines were maintained in RPMI-1640 medium with L-Glutamine, 10% FBS and 1 mg/ml geneticin (Gibco).
as §1

`COc1ccc(C(=O)Nc2ccc(-c3cc(Nc4ccc(OC(F)(F)F)cc4)ncn3)cc2)cc1` and `O=C(NCCN1CCOCC1)c1cc2c(Nc3ccc(OC(F)(F)F)cc3)ncnc2s1` [drawing 332] cannot be ordered by IC50: over 10 µM for the first, over 10 µM for the second.
